From BindingDB's records for doi:10.1038/nchembio.2168 (Novartis Institutes, 2016)

Legend:
[1] = biological target: T1, Serine/threonine-protein kinase WNK1 [1-491] (Homo sapiens, UniProt Q9H4A3); experiment: In vitro MBP Phosphorylation Assay (MBP); conditions: pH 7.3; 25 °C
T1 construct: 1-491
Description: (§1) Each well of the MBP-coated ScintiPlates held 100 ul of a solution containing 20 mM HEPES pH 7.3, 5 mM MnCl2 (WNK1 and WNK4) or 3 mM MnCl2 (WNK2 and WNK3), 0.01% Tween-20 (WNK1, WNK3 and WNK4) or 0.02% Tween-20 (WNK2), 1 mM TCEP, 2% DMSO, 1 uM ATP (WNK1, WNK3 and WNK4) or 2 uM ATP (WNK2), 1 uCi [gamma-33P]ATP (WNK1, WNK2, WNK4) or 0.25 uCi [gamma-33P]ATP (WNK3), WNK kinase enzyme (5 nM WNK1, 10 nM WNK2, 5 nM WNK3 or 10 nM WNK4) and compound at the desired concentration. The plate was sealed with a clear adhesive cover and mixed for 20 s at 800 r.p.m. on a bench top plate shaker. The plate was then placed in a 25 °C shaking incubator at 175 r.p.m for 3 h (WNK1 and WNK4), 2 h (WNK3) or 1 h (WNK2). The kinase reaction was stopped by the addition of 50 ul of 45 mM EDTA, 0.01% Tween-20, and 20 mM HEPES, pH 7.3. The content of each well was then aspirated, and the well was washed three times with 300 ul of 150 mM NaCl, 0.02% Tween-20, and 50 mM Tris-HCl pH 7.4. Incorporation of 33P into the bound MBP substrate was measured using a MicroBeta TriLux LSC and Luminescence plate counter.

[2] = biological target: T1, Serine/threonine-protein kinase WNK1 [1-491]; experiment: In vitro OSR1 Phosphorylation Assay (OSR1); conditions: pH 7.3; 4 °C
Description: 0.2 nM GST-hWNK1(1-491) (Carna Biosciences, cat# 05-179); 3.5 ug/ml GST-OSR1; 20 mM HEPES; 0.01% Tween; 5 mM MnCl2; 1 mM TCEP; 2% DMSO; 0.5 uM ATP, pH 7.3 (total volume 40 ul) were incubated for 15 min at room temperature. Samples were […] mixed with Laemmli sample buffer and resolved on a 10% Tris-glycine gel, and transferred to nitrocellulose. Membranes were blocked in 5% non-fat milk dissolved in Tris-buffered saline with tween (TBST) for 30 min, washed 3x for 10 min in TBST and incubated with phospho-OSR1 antibody (1:1,000; see Reagents section) at […] overnight. Blots were again washed with TBST and incubated with HRP-conjugated anti-rabbit IgG (1:2,500; catalog # 7074, Cell Signaling) at room temperature for 30 min. Blots were again washed and developed with SuperSignal West Femto Maximum Sensitivity Chemiluminescent Substrate for HRP (Thermo Scientific), and quantified with a Fujifilm LAS-3000 Luminescent Image Analyzer.

[3] = biological target: T2, Serine/threonine-protein kinase WNK1 [1-434] (Homo sapiens, UniProt Q9H4A3); experiment: In vitro MBP Phosphorylation Assay (MBP); conditions: pH 7.3; 25 °C
T2 construct: 1-434
Description: as §1

[4] = biological target: T3, Serine/threonine-protein kinase WNK1 [166-489] (Homo sapiens, UniProt Q9H4A3); experiment: In vitro MBP Phosphorylation Assay (MBP); conditions: pH 7.3; 25 °C
T3 construct: 166-489
Description: as §1

[5] = biological target: T4, Serine/threonine-protein kinase WNK1 [1-444] (Homo sapiens, UniProt Q9H4A3); experiment: In vitro MBP Phosphorylation Assay (MBP); conditions: pH 7.3; 25 °C
T4 construct: 1-444
Description: as §1

T1 sequence (Q9H4A3 1-491): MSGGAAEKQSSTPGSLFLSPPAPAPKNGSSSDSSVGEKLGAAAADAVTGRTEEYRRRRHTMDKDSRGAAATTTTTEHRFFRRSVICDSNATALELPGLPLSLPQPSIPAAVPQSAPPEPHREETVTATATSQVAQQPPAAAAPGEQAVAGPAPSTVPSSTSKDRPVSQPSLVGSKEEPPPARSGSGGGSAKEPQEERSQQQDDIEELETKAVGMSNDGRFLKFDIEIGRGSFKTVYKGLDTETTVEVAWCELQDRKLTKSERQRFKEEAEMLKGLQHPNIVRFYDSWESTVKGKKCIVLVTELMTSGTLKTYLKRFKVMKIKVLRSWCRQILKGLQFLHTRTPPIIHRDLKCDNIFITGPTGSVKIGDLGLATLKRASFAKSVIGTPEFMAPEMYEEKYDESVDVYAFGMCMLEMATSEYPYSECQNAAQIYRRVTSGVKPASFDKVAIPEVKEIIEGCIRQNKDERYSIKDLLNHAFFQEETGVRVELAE
T3 sequence (Q9H4A3 166-489): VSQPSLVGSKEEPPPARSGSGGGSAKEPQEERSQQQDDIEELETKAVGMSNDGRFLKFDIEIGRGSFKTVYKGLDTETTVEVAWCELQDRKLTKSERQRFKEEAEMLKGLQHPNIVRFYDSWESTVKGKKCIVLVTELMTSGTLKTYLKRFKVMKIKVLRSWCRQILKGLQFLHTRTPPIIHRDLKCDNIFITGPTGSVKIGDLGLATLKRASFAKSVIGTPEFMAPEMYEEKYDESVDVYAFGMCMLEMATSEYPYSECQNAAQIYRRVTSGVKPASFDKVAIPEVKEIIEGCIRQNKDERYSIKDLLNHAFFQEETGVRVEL
T2 sequence (Q9H4A3 1-434): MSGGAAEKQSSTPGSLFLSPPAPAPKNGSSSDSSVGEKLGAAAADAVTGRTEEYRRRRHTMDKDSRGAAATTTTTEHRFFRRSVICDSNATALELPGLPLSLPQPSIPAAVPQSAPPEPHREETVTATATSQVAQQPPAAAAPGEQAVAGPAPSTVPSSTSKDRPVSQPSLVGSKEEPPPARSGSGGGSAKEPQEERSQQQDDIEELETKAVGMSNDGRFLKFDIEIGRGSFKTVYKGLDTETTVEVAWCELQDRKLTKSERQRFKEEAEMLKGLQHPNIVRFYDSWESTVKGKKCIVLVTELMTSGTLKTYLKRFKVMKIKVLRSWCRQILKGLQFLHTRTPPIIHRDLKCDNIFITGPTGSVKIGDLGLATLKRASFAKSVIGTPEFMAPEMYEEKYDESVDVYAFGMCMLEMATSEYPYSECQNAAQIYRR
T4 sequence (Q9H4A3 1-444): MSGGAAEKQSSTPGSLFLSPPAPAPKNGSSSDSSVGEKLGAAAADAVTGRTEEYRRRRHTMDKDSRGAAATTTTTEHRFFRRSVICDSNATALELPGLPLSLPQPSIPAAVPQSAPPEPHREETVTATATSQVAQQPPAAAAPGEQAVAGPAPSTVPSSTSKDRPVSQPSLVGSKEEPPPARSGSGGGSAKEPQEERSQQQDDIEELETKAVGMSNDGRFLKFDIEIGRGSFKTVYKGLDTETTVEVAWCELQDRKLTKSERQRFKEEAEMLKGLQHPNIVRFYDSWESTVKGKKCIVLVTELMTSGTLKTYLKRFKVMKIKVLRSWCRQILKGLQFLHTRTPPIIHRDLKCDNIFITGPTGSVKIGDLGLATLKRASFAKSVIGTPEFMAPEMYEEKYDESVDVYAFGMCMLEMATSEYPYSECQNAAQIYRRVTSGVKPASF

| IC50 [1] | IC50 [2] | IC50 [3] | IC50 [4] | IC50 [5] | SMILES |
| --- | --- | --- | --- | --- | --- |
| 856 nM | – | – | – | – | COc1ccc(CC(=O)N2CCC(n3cncc3C(=O)NCCc3ccccc3)C2)cc1 [(R)-1-(1-(2-(4-methoxyphenyl)acetyl)pyrrolidin-3-yl)-N-phenethyl-1H-imidazole-5-carboxamide (1)] |
| 5 nM | 41 nM | 6 nM | 1 nM | 9 nM | CC(C)(C)NC(=O)c1cncn1C1CCN(c2ccc(-c3nnc(C(F)(F)F)o3)cc2)CC1 [WNK463 (2)] |
